Earlier results on 2 compounds are cited in patent US20060122261A1, “[METHOD OF PREPARING LABDANE DITERPENE COMPOSITION, PREFERABLY ISOFORSKOLIN AND DEACETYLFORSKOLIN FROM FORSKOLIN EXTRACT AND THEIR USE FOR PROMOTING LEAN BODY MASS AND OTHER APPLICATIONS]” (priority 2003, published 2006).

One data set has as its system adenylate cyclase. The note with it: Rupp, de Souza, Dohadwalla 1985.
For data set [1] the following is noted: Rupp, de Souza, Dohadwalla 1985.

As for `C=C[C@@]1(C)CC(=O)[C@@]2(O)[C@](C)(O1)[C@@H](O)[C@@H](OC(C)=O)C1C(C)(C)CC[C@H](O)[C@@]12C` (stereo partly shown) [6-acetyl-7-deacetylforskolin], the “Effectiveness as adenylate cyclase activator relative to Forskolin” value in the data set on adenylate cyclase is “equally effective as Forskolin”. For the same compound, the “Effectiveness as hypotensive, anti-hypertensive, positive inotropic relative to Forskolin” value in data set [1] is “equally effective as Forskolin”.

`C=C[C@@]1(C)CC(=O)[C@]2(O)[C@@]3(C)[C@@H](O)CCC(C)(C)[C@@H]3[C@H](O)[C@H](O)[C@@]2(C)O1` [7-deacetylforskolin]: the “Effectiveness as adenylate cyclase activator relative to Forskolin” value in the data set with adenylate cyclase is reported as “equally effective as Forskolin”. In addition, the “Effectiveness as hypotensive, anti-hypertensive, positive inotropic relative to Forskolin” value in data set [1] is recorded as “equally effective as Forskolin”.
